Source: US5079357A, “Derivatives of penem” (Daiichi Pharmaceutical Co., Ltd., priority 1985, dated 1992)
Converted amounts (≈) assume the structure as drawn.

How the values were obtained:
Assay in all cases: antibacterial activity (MIC), broth dilution method
Type in all cases: cell-based
E. coli, NIHJ = settings: Escherichia coli, Muller-Hinton broth, 10^5 /ml bacteria, 37° C., 18 hours, read-out: Minimal Inhibitory Concentration (MIC)
Method: (§1) On some of the compounds according to the present invention, the antibacterial activity was determined by broth dilution method in Muller-Hinton broth in which 10^5 /ml of bacteria were seaded and incubated at 37° C. for 18 hours.

S. aureus, 209P = settings: Staphylococcus aureus, Muller-Hinton broth, 10^5 /ml bacteria, 37° C., 18 hours, read-out: Minimal Inhibitory Concentration (MIC)
Method: as §1

Ent. cloacae, 03400 = settings: Enterobacter cloacae, Muller-Hinton broth, 10^5 /ml bacteria, 37° C., 18 hours, read-out: Minimal Inhibitory Concentration (MIC)
Method: as §1

Ser. Marcescens, 10104 = settings: Serratia marcescens, Muller-Hinton broth, 10^5 /ml bacteria, 37° C., 18 hours, read-out: Minimal Inhibitory Concentration (MIC)
Method: as §1

Ps. aeruginosa, 32233 = settings: Pseudomonas aeruginosa, Muller-Hinton broth, 10^5 /ml bacteria, 37° C., 18 hours, read-out: Minimal Inhibitory Concentration (MIC)
Method: as §1

| SMILES | MIC (E. coli, NIHJ) [µg/mL] | MIC (S. aureus, 209P) [µg/mL] | MIC (Ent. cloacae, 03400) [µg/mL] | MIC (Ser. Marcescens, 10104) [µg/mL] | MIC (Ps. aeruginosa, 32233) [µg/mL] |
| --- | --- | --- | --- | --- | --- |
| CC(O)C1C(=O)N2C(C(=O)[O-])=C(SC3CCn4c[n+](C)cc43)SC12 (single isomer, unassigned) [B] | 0.1 (≈ 0.272 µM) | ≤ 0.05 | 0.2 (≈ 0.544 µM) | 0.78 (≈ 2.12 µM) | 0.78 (≈ 2.12 µM) |
| CC(O)C1C(=O)N2C(C(=O)O)=C(SC3Cc4nncn4C3)SC12 [A, (5R, 6S, 8R)-6-(1-hydroxyethyl)-2-[(6,7-dihydro-5H-pyrrolo[(2,1-c]-1,2,4-triazol-6-yl)thio]-2-penem-3-carboxylic acid] | ≤ 0.05 | ≤ 0.05 | 0.39 (≈ 1.1 µM) | 0.78 (≈ 2.2 µM) | 25 (≈ 70.5 µM) |
| CC(O)C1C(=O)N2C(C(=O)O)=C(SCCOC(N)=O)SC12 (stereo not drawn) [Sch 34343, reference compound] | 0.39 (≈ 1.17 µM) | 0.1 (≈ 0.299 µM) | 0.78 (≈ 2.33 µM) | 3.13 (≈ 9.36 µM) | 100 (≈ 299 µM) |
